IC50 data for 21 compounds are collected here from the Kinase Knowledgebase extract (Sharma et al. 2016).

Where only a bound is given, the exact number is not on record here.

For this test, the target named is MAPK14 (UniProt Q16539). The experiment in a line: Inhibition of MAPK14 Kinase Activity.
Chain of MAPK14 (Q16539 whole entry, looked up): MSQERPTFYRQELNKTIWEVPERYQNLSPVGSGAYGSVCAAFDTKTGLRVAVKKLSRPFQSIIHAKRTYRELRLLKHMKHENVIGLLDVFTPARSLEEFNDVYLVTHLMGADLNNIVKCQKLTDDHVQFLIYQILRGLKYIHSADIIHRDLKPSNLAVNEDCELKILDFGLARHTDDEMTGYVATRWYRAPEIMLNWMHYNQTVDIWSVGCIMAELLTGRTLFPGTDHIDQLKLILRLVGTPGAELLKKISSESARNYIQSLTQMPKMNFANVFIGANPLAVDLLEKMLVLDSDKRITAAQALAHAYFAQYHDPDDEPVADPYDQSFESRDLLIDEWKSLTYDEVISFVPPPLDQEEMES

The IC50 is the concentration at which inhibition is half-maximal. Low values mean greater potency, high ones weaker potency. `CC(C)S(=O)(=O)n1c(N)nc2ccc(-c3c(-c4ccccc4)ncn3C3CCCCC3)cc21` showed an IC50 of at most 5 µM.

On to `CC(C)S(=O)(=O)n1c(N)nc2ccc(-c3c(-c4ccccc4)ncn3CCNC(=O)OC(C)(C)C)cc21`, for which the IC50 was at most 5 µM. Take `CC(C)S(=O)(=O)n1c(N)nc2ccc(-c3nc(C4CCN(Cc5ccccn5)CC4)[nH]c3-c3ccccc3)cc21`: the IC50 was at most 5 µM.

`CC(C)S(=O)(=O)n1c(N)nc2ccc(-c3c(-c4ccccc4)ncn3[C@H]3CC[C@H](O)CC3)cc21` yielded an IC50 of at most 5 µM. To `CC(C)S(=O)(=O)n1c(N)nc2ccc(-c3c(-c4ccccc4)nc4n3CCC4)cc21` belongs at most 5 µM; to `CC(C)S(=O)(=O)n1c(N)nc2ccc(-c3c(C#N)cnn3-c3ccccc3)cc21`, at most 5 µM. On to `CC(C)S(=O)(=O)n1c(N)nc2ccc(-c3c(-c4ccccc4)nc4ccccn34)cc21`, for which the IC50 is at most 5 µM. To `CC(C)S(=O)(=O)n1c(N)nc2ccc(-c3nc(-c4c(F)cccc4F)n(C)c3-c3ccccc3)cc21` belongs at most 5 µM; to `CC(C)S(=O)(=O)n1c(N)nc2ccc(-c3[nH]n(-c4ccc(C(F)(F)F)cc4)c(=O)c3-c3ccccc3)cc21`, at most 5 µM; to `CC(C)S(=O)(=O)n1c(N)nc2ccc(-c3nc[nH]c3-c3cccc(F)c3)cc21`, at most 5 µM.

Compound `CC(C)S(=O)(=O)n1c(N)nc2ccc(-c3nc(-c4ccc(Cl)s4)[nH]c3-c3ccccc3)cc21` gave an IC50 of at most 5 µM. To `CNc1ccc(-c2nc(-c3ccc4nc(N)n(S(=O)(=O)C(C)C)c4c3)c(-c3ccccc3)[nH]2)c(F)c1` belongs at most 5 µM. As for `CC(C)S(=O)(=O)n1c(N)nc2ccc(-c3nc(-c4c(Cl)cccc4Cl)[nH]c3-c3ccc(F)cc3)cc21`, the figure is at most 5 µM; as for `CC(C)S(=O)(=O)n1c(N)nc2ccc(-c3sc(-c4ccccc4)nc3-c3ccccc3)cc21`, at most 5 µM. To `CC(C)S(=O)(=O)n1c(N)nc2ccc(-c3nc(-c4cccc(OCCN5CCCCC5)c4)[nH]c3-c3ccccc3)cc21` belongs at most 5 µM. Compound `CC(C)S(=O)(=O)n1c(N)nc2ccc(-c3c(-c4ccc(F)cc4)ncn3C3CCNCC3)cc21` returned an IC50 of at most 5 µM.

`Cc1nc(-c2ccc3nc(N)n(S(=O)(=O)C(C)C)c3c2)c(-c2ccc(F)cc2F)[nH]1` yielded an IC50 of at most 5 µM. To `CC(C)S(=O)(=O)n1c(N)nc2ccc(-c3nc(C4CCN(C(=O)OCc5ccccc5)CC4)[nH]c3-c3ccccc3)cc21` belongs at most 5 µM. `CC(C)S(=O)(=O)n1c(N)nc2ccc(-c3c(-c4ccccc4)ncn3Cc3ccc(F)cc3F)cc21` showed an IC50 of at most 5 µM. Take `CC(C)S(=O)(=O)n1c(N)nc2ccc(-c3c(-c4ccccc4)ncn3C3CCCC3)cc21`: the IC50 is at most 5 µM. Take `CC(C)S(=O)(=O)n1c(N)nc2ccc(-c3nc(-c4cccs4)n(C)c3-c3ccccc3)cc21`: the IC50 is at most 5 µM.
